According to PubChem BioAssay (NCI):
Values joined by “and” are separate entries in the source; they are usually repeats but may differ in a detail not shown here. Equal entries are not always repeated.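 Exposure lasted 48 hours, with cells grown in 96-well plates and compounds tested at five concentrations. The concentration for 50% growth inhibition is given as GI50. TGI denotes the concentration required for complete inhibition of growth.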

Columns and labels:
Assay in all cases: NCI tumour cell line growth inhibition, 48 h
DU-145 prostate = test system: DU-145 prostate
A549 NSCLC = test system: A549 NSCLC
MALME-3M melanoma = test system: MALME-3M melanoma
SK-MEL-5 melanoma = test system: SK-MEL-5 melanoma
TK-10 renal = test system: TK-10 renal
HCT-15 colon = test system: HCT-15 colon
NCI-H23 lung = test system: NCI-H23 lung
OVCAR-3 ovarian = test system: OVCAR-3 ovarian
SN12C renal = test system: SN12C renal
SNB-19 CNS = test system: SNB-19 CNS

Compound | GI50 (DU-145 prostate) | TGI (DU-145 prostate) | GI50 (A549 NSCLC) | TGI (A549 NSCLC) | GI50 (MALME-3M melanoma) | TGI (MALME-3M melanoma) | GI50 (SK-MEL-5 melanoma) | TGI (SK-MEL-5 melanoma) | GI50 (TK-10 renal) | TGI (TK-10 renal) | GI50 (HCT-15 colon) | TGI (HCT-15 colon) | GI50 (NCI-H23 lung) | TGI (NCI-H23 lung) | GI50 (OVCAR-3 ovarian) | TGI (OVCAR-3 ovarian) | GI50 (SN12C renal) | TGI (SN12C renal) | GI50 (SNB-19 CNS) | TGI (SNB-19 CNS)
CNCCCNc1nc2ccccc2c2c(=O)c3cc(Cl)ccc3sc12 | 1.74 µM | 3.14 µM | 1.55 µM | 3.04 µM | 1.87 µM | 3.62 µM | 2.13 µM | 5.25 µM | 1.99 µM | 3.48 µM | 1.5 µM | 2.92 µM | 1.61 µM | 3.18 µM | 1.61 µM | 3.08 µM | 1.54 µM | 2.93 µM |  | 
COc1ccccc1S(=O)(=O)Nc1ccc2c(c1)CN(C)C(=O)N2 | 67.4 µM and 33.1 µM | > 100 µM | 9.07 µM and 22.2 µM | > 100 µM | 4.35 µM and 1.75 µM | > 100 µM | 3.88 µM and 4.42 µM | > 100 µM | 2.14 µM and 1.45 µM | > 95.5 µM and 50 µM | 3.79 µM and 3.32 µM | > 100 µM | 7.03 µM and 12.8 µM | > 100 µM | 4.71 µM | > 100 µM | 11 µM and 7.5 µM | > 100 µM | 7.3 µM and 5.07 µM | > 100 µM
CCOC(=O)Nc1ccc(-c2nc(-c3cccc(OC)c3)c(-c3ccnc(Br)c3)[nH]2)cc1 | 3.24 µM | > 100 µM | 3.07 µM | > 100 µM | 1.98 µM | 5.73 µM | 1.83 µM | 3.43 µM | 3.88 µM | > 100 µM | 1.68 µM | 5.45 µM | 2 µM | 4.75 µM | 2.82 µM | 8.44 µM | 2.77 µM | > 100 µM | 2.96 µM | > 100 µM
COC1=Nc2ccccc2S(=O)(=O)C=C1 |  | 31.4 µM |  | 36.9 µM |  | 6.84 µM |  | 24.5 µM |  | 11.3 µM |  | 7.89 µM |  | 21.4 µM |  | 6.79 µM |  | 31.7 µM |  | 56.7 µM
CN(CCCl)c1ccc(/C=C/C2=[N+](C)c3ccccc3C2(C)C)cc1 | 0.598 µM | 15.3 µM | 0.9 µM | 12.5 µM | 0.575 µM | 4.3 µM | 0.532 µM | 2.03 µM | 2.37 µM | 14.9 µM | 6.3 µM | 21.7 µM | 0.434 µM | 11 µM | 0.314 µM | 3.15 µM | 0.297 µM | 1.72 µM | 0.495 µM | 15.5 µM
O=C(O)C1(Cc2cccc(Nc3nccs3)n2)CCC(Oc2cccc(Cl)c2F)CC1 (configuration not stated) | 14.4 µM | 32.3 µM | 5.8 µM | > 60 µM | 20.5 µM | 54.3 µM | 14.8 µM | 28.7 µM | 18.8 µM | 61.9 µM | 3.34 µM | 25.2 µM | 12.9 µM | 34.5 µM | 13.3 µM | 36.4 µM | 11.4 µM | 46.6 µM | 20 µM | 73.9 µM
CNC1C(O)C(OC2C(N)CC(N)C(OC3OC(C(C)O)C(O)C(O)C3N)C2O)OCC1(C)O (configuration not stated) |  | > 100 µM |  | > 100 µM |  |  |  | > 100 µM |  | > 100 µM |  | > 100 µM |  | > 100 µM |  | > 100 µM |  | > 100 µM |  | > 100 µM
COc1ccc(C(=O)COc2cccc(/C=C3\CSc4ccc(C)cc4C3=O)c2)cc1 | 64.5 µM | > 100 µM | > 100 µM | > 100 µM | 41 µM | > 100 µM | 10.9 µM | > 100 µM | 19.8 µM | > 100 µM | 11.7 µM | > 100 µM | 6.99 µM | > 100 µM | 15.4 µM | 57.6 µM | 31.8 µM | > 100 µM | > 100 µM | > 100 µM
COc1ccc(-c2ccc(/C=N/n3c(C)nn(CN4CCN(C)CC4)c3=S)o2)c([N+](=O)[O-])c1 | > 100 µM | > 100 µM | 60.8 µM | > 100 µM | 44.6 µM | > 100 µM |  |  | 24.3 µM | 74.7 µM | 28.7 µM | > 100 µM | 26.1 µM | 92.5 µM | 16.2 µM | 38.1 µM | > 100 µM | > 100 µM | 58.3 µM | > 100 µM
O=[N+]([O-])c1ccc2ncccc2c1Cl | 3.4 µM | 10.2 µM | 3.29 µM | > 100 µM | 15.2 µM | 54.4 µM | 2.95 µM | 10 µM | 6.38 µM | 46.1 µM | 3.43 µM | 14.4 µM | 6.96 µM | 29.8 µM | 2.77 µM | 6.99 µM | 4.3 µM | > 100 µM | 4.2 µM | 23.4 µM
CCC1CCc2nc3sc(C(=O)Nc4ccccc4C)c(N)c3cc2C1 (configuration not stated) | 0.485 µM | > 100 µM | 0.616 µM | > 100 µM |  |  | 0.301 µM | > 100 µM | 0.833 µM | > 100 µM | 0.339 µM | > 100 µM |  |  | 0.351 µM | > 100 µM | 8.37 µM | > 100 µM | 0.911 µM | > 100 µM
COc1ccc2c(c1)[n+](=O)c(C(=O)/C=C/c1cc(OC)c(OC)c(OC)c1)c(C)n2[O-] | 10.7 µM | 25.4 µM | 34.9 µM | > 100 µM | 19.1 µM | 58.7 µM | 40.4 µM | > 100 µM | 18.9 µM | 36 µM | 29.1 µM | > 100 µM |  |  | 27.3 µM | > 100 µM | 28.2 µM | > 100 µM | 14.1 µM | 36.5 µM
C#Cc1cccc(Nc2nc3ccc([N+](=O)[O-])cc3nc2Nc2cccc(C#C)c2)c1 | 0.367 µM | 1.47 µM | 0.212 µM | 1.12 µM | 0.235 µM | 0.614 µM | 0.181 µM | 0.349 µM |  |  | 0.197 µM | 0.716 µM | 0.265 µM | 0.911 µM | 0.193 µM | 0.67 µM | 0.313 µM | 1.29 µM | 0.361 µM | 1.84 µM
